Reference: paper PMC6961122 (Bioorganic & Medicinal Chemistry, 2020)
Where two headings read alike, the source gives them in different places.

Columns and labels:
U87 cells [1] = assay: Cell viability assay (PrestoBlue, 5 d) in U87 glioma cells; type: cell-based; settings: library screen, 5 d treatment, mean of three independent experiments in triplicates, read-out: EC50 U87 ± SEM
Procedure: (§1) The antiproliferative activity of a total of 100 compounds was tested against U87 and T98 glioma cell lines, using TMZ[3] and the Topoisomerase I inhibitor SN-38[18] as positive controls. Cells were treated with the library members for 5 d at three different concentrations (3, 30 and 300 µM) and cell viability determined using the PrestoBlue reagent. Half-maximal effective concentration (EC50) values were calculated from the corresponding dose-response curves and plotted in Fig. 2a as a heatmap to facilitate data analysis, with black meaning no activity and dark to light green to yellow transitions indicating decreasing EC50 values (=increasing potencies). Table 1 of the Suppl. Data contains the corresponding EC50 values ± SEM.
(§2) INK128 and SN-38 were used as positive controls. […] Structurally, these derivatives differed in the size of the alkyl group of the N1 position and the presence or absence of an oxygen atom in that moiety (see Suppl. Data).
(§3) U87 and T98 cells (ATCC) were cultured in DMEM (Gibco), supplemented with 10% (v/v) FBS (Gibco) and 2 mM L-Glutamine (Gibco) in a standard incubator (95% humidity, 5% CO2), and subcultured twice per week through trypsinization. G317 patient-derived glioma cells were established by the Glioma Cellular Genetics Resource (gcgr.org.uk) funded by Cancer Research UK. Ethics approval for use of patient-derived cells and early access confirmation to reagents from the Glioma Cellular Genetics Resource assured that all ethical issues according to UK legislation are fulfilled. G317 were cultured in DMEM/HAMS-F12 (Sigma) supplemented with 1.5 g L^−1 D-(+)-Glucose (Sigma), MEM non-essential aminoacids (Gibco), 0.015% (w/v) Penicillin-Streptomycin (Gibco), 0.012% (w/v) BSA (Gibco), 0.1 mM β-mercaptoethanol (Gibco), B27 (Gibco) and N2 supplements (Gibco). Cells were detached using accutase solution (Sigma) and subcultured once per week. Before adding to the cells, medium was supplemented with 10 ng ml^−1 mouse EGF (Preprotech), 10 ng ml^−1 human FGF (Preprotech), and 1 µg ml^−1 Laminin (Sigma).
(§4) 1 × 10^3 U87 cells/well, 5 × 10^2 T98 cells/well, 1 × 10^4 G317 cells/well, 1 × 10^4 HBVP cells/well and 1 × 10^4 bEnd3 cells/well were seeded in 96-well plates. After 48 h in culture, cells were treated with the inhibitors for 5 d. For GI50 determination, the viability of a triplicate sample of each experiment before treatment was measured with the PrestoBlue Reagent (Invitrogen), to establish a basepoint 0% of growth. […] ZIP Synergy scores were obtained with Synergy finder.[22] Viability percentage, EC50 and GI50 values were obtained using GraphPad Prism version 8.0.0 for Windows, GraphPad Software, San Diego, California USA, www.graphpad.com.

T98 cells [2] = assay: Cell viability assay (PrestoBlue, 5 d) in T98 glioma cells; type: cell-based; settings: library screen, 5 d treatment, mean of three independent experiments in triplicates, read-out: EC50 T98 ± SEM
Procedure: as §1, §2, §3, §4

[3] = system: G317 patient-derived glioma cells; assay: Growth inhibition (GI50, PrestoBlue, 5 d) in patient-derived glioma cells G317; type: cell-based, human; settings: 5 d treatment, growth related to t=0 and DMSO, extrapolated from sigmoidal dose-response curve
Procedure: Cells were treated with each inhibitor at concentrations ranging from 1 to 10,000 nM and PrestoBlue assay used at day 5 to detect viability. […] Data are means ± SEM of 3 independent experiments in triplicates.
as §3, §4
Table S2 . GI 50 values (nM) calculated for eCF309 , eCF311 , eCF312 , eCF324 , eCF325 and controls
Cells were treated with 10, 3, 1 µM,
300, 100, 30, 10, 3, 1, 0 nM of each inhibitor during 5 d. Cell growth (PrestoBlue) was related to t=0 (before
drug treatment), and GI 50 values were extrapolated from their corresponding sigmoidal dose-response curve

U87 cells [4] = assay: Cell viability assay (PrestoBlue, 5 d) in U87 glioma cells; type: cell-based; settings: repeat for most potent hits; 7-point half-log dose-response 1 to 1,000 nM; PrestoBlue day 5
T98 cells [5] = assay: Cell viability assay (PrestoBlue, 5 d) in T98 glioma cells; type: cell-based; settings: repeat for most potent hits; 7-point half-log dose-response 1 to 1,000 nM; PrestoBlue day 5

Compound | EC50 (U87 cells [1]) | EC50 (T98 cells [2]) | further results
CN(C)CC1CCN(CCn2nc(-c3ccc4[nH]ccc4c3)c3c(N)ncnc32)CC1 [eCF221] | 18.7 ± 4.91 µM | 16.8 ± 3.66 µM | 
CN(C)C1CCN(CCn2nc(-c3ccc(CC(=O)O)cc3)c3c(N)ncnc32)CC1 [eCF556] | > 30 µM | > 30 µM | 
CN(C)CC1CCN(CCn2nc(-c3ccc4ncccc4c3)c3c(N)ncnc32)CC1 [eCF223] | > 30 µM | > 30 µM | 
CN(C)C1CCN(CCn2nc(-c3ccc(NC(=O)OC(C)(C)C)c(O)c3)c3c(N)ncnc32)CC1 [eCF562] | > 30 µM | > 30 µM | 
CN(C)C1CCN(CCn2nc(-c3ccc(NCc4ccccn4)cc3)c3c(N)ncnc32)CC1 [eCF576] | > 30 µM | > 30 µM | 
Nc1ncnc2c1c(-c1cnc3[nH]ccc3c1)nn2CC1OCCO1 [eCF307] | 11.3 ± 2.56 µM | 13.1 ± 2.65 µM | 
COc1cc(-c2nn(CCN3CCC(N4CCCC4)CC3)c3ncnc(N)c23)ccc1NC(=O)OC(C)(C)C [eCF518] | 12 ± 0.168 µM | 3.48 ± 0.567 µM | 
CNc1ncc2c(-c3ccc(C(N)=O)cc3)nn(CC3CCCC3)c2n1 [eSM106] | > 30 µM | > 30 µM | 
COc1ccc(-c2nn(CC3CCCC3)c3ncnc(N)c23)cc1 [eSM205] | 14.3 ± 6.14 µM | 11.9 ± 6.5 µM | 
COC(Cn1nc(-c2cnc3[nH]ccc3c2)c2c(N)ncnc21)OC [eCF308] |  |  | EC50 (U87 cells [1]; Homo sapiens, U-87 MG, 120 h): 6.16 ± 1.22 µM; EC50 (T98 cells [2]; Homo sapiens, T98, 120 h): 7.34 ± 1.56 µM
CN(C)C1CCN(CCn2nc(-c3ccc(CC#N)cc3)c3c(N)ncnc32)CC1 [eCF600] | > 30 µM | > 30 µM | 
COc1cc(-c2nn(CCN3CCC(N(C)C)CC3)c3ncnc(N)c23)ccc1NC(=O)CCc1ccccc1 [eCF531] | 22.6 ± 5.38 µM | 11.1 ± 1.1 µM | 
Nc1ncnc2c1c(-c1ccoc1)nn2C1CCCC1 [eSM209] | 23.6 ± 2.51 µM | 15.6 ± 1.45 µM | 
COc1cc(-c2nn(CCN3CCC(N(C)C)CC3)c3ncnc(N)c23)ccc1NCc1ccccc1 [eCF575] | > 30 µM | > 30 µM | 
CCOC(Cn1nc(-c2cccc(NC(=O)OC(C)(C)C)c2)c2c(N)ncnc21)OCC [eCF207] | > 30 µM | > 30 µM | 
CNc1ncc2c(-c3cnc4[nH]ccc4c3)nn(Cc3cn(Cc4ccccc4)nn3)c2n1 [eSM145] | 14.2 ± 0.557 µM | 9.11 ± 1.67 µM | 
CNc1ncc2c(-c3ccc(N4CCN(C(=O)NC(C)(C)C)CC4)nc3)nn(CC3CCCC3)c2n1 [eSM149] | > 30 µM | > 30 µM | 
Nc1nc2cc(-c3nn(C[C@H]4CCCO4)c4ncnc(N)c34)ccc2o1 [eCF333] |  |  | EC50 (U87 cells [1]; Homo sapiens, U-87 MG, 120 h): 0.131 ± 0.01 µM; EC50 (T98 cells [2]; Homo sapiens, T98, 120 h): 0.088 ± 0.014 µM; GI50 (50% of growth inhibition) in G317 [3]: identical dose response curves to eCF325; EC50 in U87 cells (U87 cells [4]): identical dose response curves to that of eCF325; EC50 in T98 cells (T98 cells [5]): identical dose response curves to that of eCF325
COc1cc(-c2nn(CCN3CCC(N(C)C)CC3)c3ncnc(N)c23)ccc1NC(=O)N(C)C(C)(C)C [eCF608] | 21.1 ± 3.02 µM | 14.4 ± 7.53 µM | 
Cc1ccc(-c2nn(CCN3CCC(CN(C)C)CC3)c3ncnc(N)c23)cc1 [eCF112] | 6.63 ± 1.44 µM | 6.28 ± 1.91 µM | 
CNc1ncc2c(-c3cccc(C(N)=O)c3)nn(CC3CCCC3)c2n1 [eSM108] | 23.8 ± 2.78 µM | > 30 µM | 
